The values that follow come from patent US20090069370A1, “AZACYCLYLISOQUINOLINONE AND ISOINDOLINONE DERIVATIVES AS HISTAMINE-3 ANTAGONISTS” (Wyeth, priority 2007, published 2009).

Where a name gives a salt, the structure may show the parent alone. Bounds are passed on as bounds.

One may read the melting point as the temperature of the solid-liquid transition.

Take `CCNC(=O)c1ccc(Oc2ccc3c(c2)CCN([C@@H]2CCN(C4CCC4)C2)C3=O)cc1` (as salt: hydrochloride) [Example 34, 4-({2-[(3R)-1-cyclobutylpyrrolidin-3-yl]-1-oxo-1,2,3,4-tetrahydroisoquinolin-6-yl}oxy)-N-ethylbenzamide]: the melting point is 153 to 154 °C.
Then `O=C(c1ccc(-c2ccc3c(c2)CCN([C@@H]2CCN(C4CCCCC4)C2)C3=O)cc1)N1CCCC1` (as salt: hydrochloride) [Example 57, 2-[(3R)-1-cyclohexylpyrrolidin-3-yl]-6-[4-(pyrrolidin-1-ylcarbonyl)phenyl]-3,4-dihydroisoquinolin-1(2H)-one], with 279 to 281 °C.
Next, `CN(C)C(=O)c1ccc(-c2ccc3c(c2)CCN([C@@H]2CCN(C4CCC4)C2)C3=O)c(F)c1` (as salt: hydrochloride) [Example 78, 4-{2-[(3R)-1-cyclobutylpyrrolidin-3-yl]-1-oxo-1,2,3,4-tetrahydroisoquinolin-6-yl}-3-fluoro-N,N-dimethylbenzamide]: 209 to 210 °C; `CCNC(=O)c1ccc(Oc2ccc3c(c2)CCN(C2CCN(C4CCC4)CC2)C3=O)cc1` (as salt: hydrochloride) [Example 5, 4-{[2-(1-Cyclobutylpiperidin-4-yl)-1-oxo-1,2,3,4-tetrahydroisoquinolin-6-yl]oxy}-N-ethylbenzamide]: 317 to 318 °C.
`O=C(c1ccc(-c2ccc3c(c2)CCN(C2CCN(Cc4ccccc4)CC2)C3=O)cc1)N1CCCC1` [Example 63, 2-(1-benzylpiperidin-4-yl)-6-(4-(pyrrolidine-1-carbonyl)phenyl)-3,4-dihydroisoquinolin-1(2H)-one] had a melting point of 197 to 198 °C.
`O=C(NC1CCC1)c1ccc(Oc2ccc3c(c2)CCN(C2CCN(C4CCC4)CC2)C3=O)cc1` (as salt: hydrochloride) [Example 8, N-Cyclobutyl-4-{[2-(1-cyclobutylpiperidin-4-yl)-1-oxo-1,2,3,4-tetrahydroisoquinolin-6-yl]oxy}benzamide]: the melting point was more than 300 °C.
Then `O=C(c1ccc(-c2ccc3c(c2)CCN([C@@H]2CCN(CC4CCCC4)C2)C3=O)cc1)N1CCCC1` (as salt: hydrochloride) [Example 59, 2-[(3R)-1-(cyclopentylmethyl)pyrrolidin-3-yl]-6-[4-(pyrrolidin-1-ylcarbonyl)phenyl]-3,4-dihydroisoquinolin-1(2H)-one], with 288 to 290 °C.
In turn, `O=C(c1ccc(-c2ccc3c(c2)CCN([C@@H]2CCN(C4CCC4)C2)C3=O)cc1Cl)N1CCCC1` (as salt: hydrochloride) [Example 49, 6-[3-chloro-4-(pyrrolidin-1-ylcarbonyl)phenyl]-2-[(3R)-1-cyclobutylpyrrolidin-3-yl]-3,4-dihydroisoquinolin-1(2H)-one] came in with a melting point of 198 to 200 °C.
With `O=C(c1ccc(-c2ccc3c(c2)CCN([C@@H]2CCN(C4CCC4)C2)C3=O)cc1F)N1CCCC1` (as salt: hydrochloride) [Example 48, 2-[(3R)-1-cyclobutylpyrrolidin-3-yl]-6-[3-fluoro-4-(pyrrolidin-1-ylcarbonyl)phenyl]-3,4-dihydroisoquinolin-1(2H)-one], the melting point lay in the range of 235 to 236 °C.
Regarding `O=C1c2ccc(-c3ccccc3)cc2CCN1[C@@H]1CCN(C2CCC2)C1` (as salt: hydrochloride) [Example 50, 2-[(3R)-1-cyclobutylpyrrolidin-3-yl]-6-phenyl-3,4-dihydroisoquinolin-1(2H)-one], the melting point was more than 255 °C.
The compound `N#Cc1ccc(-c2ccc3c(c2)CN(C2CCN(CC4CCCC4)CC2)C3=O)cc1` (as salt: hydrochloride) [Example 27, 4-{2-[1-(Cyclopentylmethyl)piperidin-4-yl]-1-oxo-2,3-dihydro-1H-isoindol-5-yl}benzonitrile] returned a melting point of more than 300 °C.
Then `CN(C)C(=O)c1ccc(Oc2ccc3c(c2)CCN(C2CCN(C4CCC4)CC2)C3=O)cc1` (as salt: hydrochloride) [Example 10, 4-{[2-(1-Cyclobutylpiperidin-4-yl)-1-oxo-1,2,3,4-tetrahydroisoquinolin-6-yl]oxy}-N,N-dimethylbenzamide], with 262 to 264 °C.
Then `O=C(c1ccc(-c2ccc3c(c2)CCN([C@@H]2CCN(Cc4ccoc4)C2)C3=O)cc1)N1CCCC1` (as salt: hydrochloride) [Example 60, 2-[(3R)-1-(furan-3-ylmethyl)pyrrolidin-3-yl]-6-[4-(pyrrolidin-1-ylcarbonyl)phenyl]-3,4-dihydroisoquinolin-1(2H)-one], with 254 to 256 °C; and `CC(C)N1CC[C@@H](N2CCc3cc(-c4ccc(C(=O)N5CCCC5)cc4)ccc3C2=O)C1` (as salt: hydrochloride) [Example 56, 2-[(3R)-1-(1-methylethyl)pyrrolidin-3-yl]-6-[4-(pyrrolidin-1-ylcarbonyl)phenyl]-3,4-dihydroisoquinolin-1(2H)-one], with 220 to 222 °C.
Turning to `O=C(c1ccc(-c2ccc3c(c2)CCN([C@@H]2CCN(Cc4cccs4)C2)C3=O)cc1)N1CCCC1` (as salt: hydrochloride) [Example 62, 6-[4-(pyrrolidin-1-ylcarbonyl)phenyl]-2-[(3R)-1-(thiophen-2-ylmethyl)pyrrolidin-3-yl]-3,4-dihydroisoquinolin-1(2H)-one], the melting point was 249 to 250 °C.
Next, `CNC(=O)c1ccc(Oc2ccc3c(c2)CCN([C@@H]2CCN(C4CCC4)C2)C3=O)cc1` (as salt: hydrochloride) [Example 33, 4-({2-[(3R)-1-cyclobutylpyrrolidin-3-yl]-1-oxo-1,2,3,4-tetrahydroisoquinolin-6-yl}oxy)-N-methylbenzamide]: 206 to 208 °C.
The compound `CCNC(=O)c1ccc(-c2ccc3c(c2)CCN([C@@H]2CCN(C(C)C)C2)C3=O)c(F)c1` (as salt: hydrochloride) [Example 86, N-ethyl-3-fluoro-4-{2-[(3R)-1-isopropylpyrrolidin-3-yl]-1-oxo-1,2,3,4-tetrahydroisoquinolin-6-yl}benzamide] showed a melting point of more than 255 °C.
Then `CCNC(=O)c1ccc(-c2ccc3c(c2)CCN([C@@H]2CCN(C(C)C)C2)C3=O)cc1` (as salt: hydrochloride) [Example 83, N-ethyl-4-{2-[(3R)-1-isopropylpyrrolidin-3-yl]-1-oxo-1,2,3,4-tetrahydroisoquinolin-6-yl}benzamide], with more than 270 °C; and `CCNC(=O)c1ccc(-c2ccc3c(c2)CCN([C@@H]2CCN(C4CCC4)C2)C3=O)cc1` (as salt: hydrochloride) [Example 45, 4-{2-[(3R)-1-cyclobutylpyrrolidin-3-yl]-1-oxo-1,2,3,4-tetrahydroisoquinolin-6-yl}-N-ethylbenzamide], with 268 to 272 °C; and `O=C1NCCc2cc(-c3ccc4c(c3)CCN([C@@H]3CCN(C5CCC5)C3)C4=O)ccc21` (as salt: hydrochloride) [Example 89, (R)-2-(1-cyclobutylpyrrolidin-3-yl)-3,3′,4,4′-tetrahydro-6,6′-biisoquinoline-1,1′(2H,2′H)-dione hydrochloride], with more than 274 °C.
Then `O=C(c1ccc(-c2ccc3c(c2)CCN([C@@H]2CCN(C4CCC4)C2)C3=O)cc1)N1CCCC1` (as salt: hydrochloride) [Example 47, 2-[(3R)-1-cyclobutylpyrrolidin-3-yl]-6-[4-(pyrrolidin-1-ylcarbonyl)phenyl]-3,4-dihydroisoquinolin-1(2H)-one], with 215 to 217 °C; and `CC(C)N1CC[C@@H](N2CCc3cc(-c4ccc(C(=O)N5CCCC5)cc4F)ccc3C2=O)C1` (as salt: hydrochloride) [Example 84, 6-[2-fluoro-4-(pyrrolidin-1-ylcarbonyl)phenyl]-2-[(3R)-1-isopropylpyrrolidin-3-yl]-3,4-dihydroisoquinolin-1(2H)-one], with 249 to 250 °C; and `O=C(c1ccc(-c2ccc3c(c2)CN([C@@H]2CCN(C4CCC4)C2)C3=O)cc1)N1CCCC1` (as salt: hydrochloride) [Example 92, (R)-2-(1-cyclobutylpyrrolidin-3-yl)-5-(4-(pyrrolidine-1-carbonyl)-phenyl)isoindolin-1-one hydrochloride], with 220 to 221 °C.
As to `O=C(c1ccc(-c2ccc3c(c2)CCN(C2CCN(C4CCC4)CC2)C3=O)cc1)N1CCCC1` (as salt: hydrochloride) [Example 65, 2-(1-cyclobutylpiperidin-4-yl)-6-[4-(pyrrolidin-1-ylcarbonyl)phenyl]-3,4-dihydroisoquinolin-1(2H)-one], the melting point was more than 300 °C.
Take `CN1CC[C@@H](N2CCc3cc(-c4ccc(C(=O)N5CCCC5)cc4)ccc3C2=O)C1` (as salt: hydrochloride) [Example 55, 2-[(3R)-1-methylpyrrolidin-3-yl]-6-[4-(pyrrolidin-1-ylcarbonyl)phenyl]-3,4-dihydroisoquinolin-1(2H)-one]: the melting point was more than 230 °C.
`CNC(=O)c1ccc(-c2ccc3c(c2)CCN([C@@H]2CCN(C4CCCC4)C2)C3=O)cc1` (as salt: hydrochloride) [Example 41, 4-{2-[(3R)-1-cyclopentylpyrrolidin-3-yl]-1-oxo-1,2,3,4-tetrahydroisoquinolin-6-yl}-N-methylbenzamide] displayed a melting point of more than 240 °C.
Next, `O=C(NC1CC1)c1ccc(-c2ccc3c(c2)CCN([C@@H]2CCN(C4CCC4)C2)C3=O)c(F)c1` (as salt: hydrochloride) [Example 81, 4-{2-[(3R)-1-cyclobutylpyrrolidin-3-yl]-1-oxo-1,2,3,4-tetrahydroisoquinolin-6-yl}-N-cyclopropyl-3-fluorobenzamide]: more than 200 °C; `CNC(=O)c1ccc(-c2ccc3c(c2)CCN([C@@H]2CCN(C4CCC4)C2)C3=O)c(F)c1` (as salt: hydrochloride) [Example 75, 4-{2-[(3R)-1-cyclobutylpyrrolidin-3-yl]-1-oxo-1,2,3,4-tetrahydroisoquinolin-6-yl}-3-fluoro-N-methylbenzamide]: 220 to 221 °C.
